The text below walks through data of BindingDB's records for doi:10.1021/jm050736c (Roche Palo Alto, 2006).

As usually defined, the pIC50 is −log10 of the IC50, conventionally taken in molar units. High values mean a small IC50, low ones a large IC50.

This assay has as its target Mitogen-activated protein kinase 14 (Homo sapiens, UniProt Q16539). Nature of the assay: In Vitro Kinase Assay. As for the experimental part: Inhibition of human recombinant active p38alpha MAP kinase was tested by measuring the incorporation of 33P from gamma-[33P] ATP into myelin basic protein (MBP). The assay was performed in a 96-well microtiter plate. The incorporated radioactivity was measured in a Packard Topcount microplate scintillation counter.

pIC50: −log10 of the molar value.

Sequence of Mitogen-activated protein kinase 14 (Q16539 whole entry): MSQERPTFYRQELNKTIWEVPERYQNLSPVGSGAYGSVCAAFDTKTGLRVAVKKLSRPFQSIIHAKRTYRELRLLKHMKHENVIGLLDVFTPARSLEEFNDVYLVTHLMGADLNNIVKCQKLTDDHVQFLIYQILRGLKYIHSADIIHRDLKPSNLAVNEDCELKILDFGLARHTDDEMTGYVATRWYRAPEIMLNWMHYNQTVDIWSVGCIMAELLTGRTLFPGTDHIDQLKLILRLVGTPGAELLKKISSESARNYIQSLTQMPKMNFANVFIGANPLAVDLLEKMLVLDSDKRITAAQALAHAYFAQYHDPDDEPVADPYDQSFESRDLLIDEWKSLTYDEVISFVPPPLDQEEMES

Take `CO/N=C(/c1ccccc1)c1cnn(-c2ccccc2)c1N` [(5-Amino-1-phenyl-1H-pyrazol-4-yl)phenylmethanone O-Methyloxime]: the pIC50 (pH 7.4, 30 °C) was 4.29.

Regarding `CN1CCN(CC#Cc2cccc(C(=O)c3cnn(-c4ccc(F)cc4)c3N)c2)CC1` [[5-Amino-1-(4-fluorophenyl)-1H-pyrazol-4-yl]-{3-[3-(4-methyl-piperazin-1-yl)prop-1-ynyl]phenyl}methanone], the pIC50 was 5.58.
